Test results as given in article PMC9386376, “Discovery of spirooxindole-derived small-molecule compounds as novel HDAC/MDM2 dual inhibitors and investigation of their anticancer activity” (Frontiers in Oncology, 2022).

What was measured:
[1] = target: HDAC4 (Homo sapiens, UniProt P56524); test: HDAC isoform selectivity, HDAC4; assay type: biochemical; conditions: HDAC subtype panel
[2] = target: HDAC5 (Homo sapiens, UniProt Q9UQL6); test: HDAC isoform selectivity, HDAC5; assay type: biochemical; conditions: HDAC subtype panel
Chain of HDAC5 (Q9UQL6 whole entry, canonical isoform): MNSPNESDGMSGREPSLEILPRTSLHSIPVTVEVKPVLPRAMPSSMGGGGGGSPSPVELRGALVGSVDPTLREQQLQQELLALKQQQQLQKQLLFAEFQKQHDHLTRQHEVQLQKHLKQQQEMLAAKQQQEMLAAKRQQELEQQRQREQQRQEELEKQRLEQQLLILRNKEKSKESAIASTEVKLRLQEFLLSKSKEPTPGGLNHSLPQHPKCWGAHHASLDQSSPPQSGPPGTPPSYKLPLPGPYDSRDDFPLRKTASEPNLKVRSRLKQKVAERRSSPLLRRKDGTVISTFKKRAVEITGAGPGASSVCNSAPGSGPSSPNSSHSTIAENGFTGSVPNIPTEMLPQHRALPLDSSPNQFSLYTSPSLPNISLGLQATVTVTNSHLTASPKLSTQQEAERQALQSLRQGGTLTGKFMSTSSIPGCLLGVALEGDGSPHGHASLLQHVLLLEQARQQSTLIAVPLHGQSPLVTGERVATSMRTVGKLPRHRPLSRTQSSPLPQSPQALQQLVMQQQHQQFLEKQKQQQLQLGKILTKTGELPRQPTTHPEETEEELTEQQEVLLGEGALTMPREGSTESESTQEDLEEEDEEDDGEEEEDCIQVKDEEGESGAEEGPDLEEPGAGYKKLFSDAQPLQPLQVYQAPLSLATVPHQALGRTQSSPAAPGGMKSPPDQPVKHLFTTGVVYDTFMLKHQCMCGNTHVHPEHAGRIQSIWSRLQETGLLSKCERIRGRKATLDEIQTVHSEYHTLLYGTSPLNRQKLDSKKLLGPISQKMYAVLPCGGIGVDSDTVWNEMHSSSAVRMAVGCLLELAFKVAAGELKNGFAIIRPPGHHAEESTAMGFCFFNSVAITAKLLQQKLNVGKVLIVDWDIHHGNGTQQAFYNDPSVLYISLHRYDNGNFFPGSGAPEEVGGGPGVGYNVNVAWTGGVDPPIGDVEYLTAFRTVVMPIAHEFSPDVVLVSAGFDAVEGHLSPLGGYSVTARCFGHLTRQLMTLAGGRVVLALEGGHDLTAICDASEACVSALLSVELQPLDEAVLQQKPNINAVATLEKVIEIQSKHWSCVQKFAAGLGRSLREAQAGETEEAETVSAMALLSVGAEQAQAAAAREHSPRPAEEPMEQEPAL

[3] = target: T1, HDAC11 (Homo sapiens, UniProt Q96DB2); test: HDAC isoform selectivity, HDAC11; assay type: biochemical; conditions: HDAC subtype panel
T1 sequence (Q96DB2 1-347): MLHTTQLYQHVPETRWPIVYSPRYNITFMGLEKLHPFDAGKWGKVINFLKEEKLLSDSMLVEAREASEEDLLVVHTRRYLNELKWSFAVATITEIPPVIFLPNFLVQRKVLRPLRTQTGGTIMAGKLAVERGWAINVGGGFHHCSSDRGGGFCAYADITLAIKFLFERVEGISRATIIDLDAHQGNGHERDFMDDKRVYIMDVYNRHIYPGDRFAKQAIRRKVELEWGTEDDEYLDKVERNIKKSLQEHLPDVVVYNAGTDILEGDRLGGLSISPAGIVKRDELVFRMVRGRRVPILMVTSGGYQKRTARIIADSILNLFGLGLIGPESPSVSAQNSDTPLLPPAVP

[4] = tested on: A431 cells; test: MTT antiproliferative assay, A431; conditions: Homo sapiens, A-431, read-out: IC50 A431
Description: The cytotoxicity assay was performed with MTT method as previously described ([73], [88], [89]).

Chain of HDAC4 (P56524 whole entry, canonical isoform): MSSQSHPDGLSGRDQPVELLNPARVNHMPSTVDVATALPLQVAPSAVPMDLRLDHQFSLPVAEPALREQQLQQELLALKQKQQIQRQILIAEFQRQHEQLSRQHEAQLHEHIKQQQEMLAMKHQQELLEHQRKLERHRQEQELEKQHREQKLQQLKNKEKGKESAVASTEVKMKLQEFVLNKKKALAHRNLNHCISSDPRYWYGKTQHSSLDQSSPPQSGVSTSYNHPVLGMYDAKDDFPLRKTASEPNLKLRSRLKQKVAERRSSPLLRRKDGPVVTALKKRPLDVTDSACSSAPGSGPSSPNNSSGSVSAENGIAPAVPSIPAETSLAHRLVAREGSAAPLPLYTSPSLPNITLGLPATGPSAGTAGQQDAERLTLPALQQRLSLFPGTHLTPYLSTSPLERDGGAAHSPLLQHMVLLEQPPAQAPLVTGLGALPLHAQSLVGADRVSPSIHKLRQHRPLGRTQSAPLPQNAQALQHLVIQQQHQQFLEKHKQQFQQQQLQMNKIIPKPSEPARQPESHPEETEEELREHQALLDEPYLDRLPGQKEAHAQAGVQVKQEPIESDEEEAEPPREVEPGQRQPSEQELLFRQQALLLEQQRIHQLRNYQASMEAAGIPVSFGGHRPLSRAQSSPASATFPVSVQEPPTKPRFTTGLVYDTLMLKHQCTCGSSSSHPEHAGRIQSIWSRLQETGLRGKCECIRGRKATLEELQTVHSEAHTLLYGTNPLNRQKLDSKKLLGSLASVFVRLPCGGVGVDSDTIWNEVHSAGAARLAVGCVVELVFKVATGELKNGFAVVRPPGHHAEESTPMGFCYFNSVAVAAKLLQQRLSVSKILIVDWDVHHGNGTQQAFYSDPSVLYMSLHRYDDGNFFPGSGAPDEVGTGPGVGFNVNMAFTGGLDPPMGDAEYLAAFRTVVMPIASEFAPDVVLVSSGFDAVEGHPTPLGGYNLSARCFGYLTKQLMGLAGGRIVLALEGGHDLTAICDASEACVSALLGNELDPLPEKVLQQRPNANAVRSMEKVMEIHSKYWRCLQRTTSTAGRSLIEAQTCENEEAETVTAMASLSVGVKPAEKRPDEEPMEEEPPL

Q: With `O=C(CCCCCCC(=O)N1CCC(C(=O)Nc2ccc([C@@H]3[C@H]4CSCN4[C@]4(C(=O)Nc5cc(Cl)ccc54)[C@H]3C(=O)c3ccccc3)cc2)CC1)NO` [compound 11b, N-(4-((3R,6'S,7'R,7a'S)-6'-benzoyl-6-chloro-2-oxo-1',6',7',7a'-tetrahydro-3'H-spiro[indoline-3,5'-pyrrolo[1,2-c]thiazol]-7'-yl)phenyl)-1-(8-(hydroxyamino)-8-oxooctanoyl)piperidine-4-carboxamide] as the compound, how does the IC50 [1] read?
A: Its IC50 is greater than 10 µM.

Q: What about the IC50 [2] of the same compound?
A: The IC50 was greater than 10 µM.

Q: And the IC50 [3]?
A: The IC50 was greater than 10 µM.

Q: What about the IC50 [4] of the same compound?
A: Its IC50 is 1.89 ± 0.88 µM.
